Experiment [1] concerns NAPRT negative lung cancer cell lines (H322, H661, H1155). Kind of experiment: Proliferation inhibition on NAPRT negative lung cancer cell lines (CellTiter-Glo). Format: cell-based. Particulars: 72 hours. Here is the method:
(§1) A compound showing a low IC50 value was selected from the compounds of the above Examples and treated an NAPRT positive or negative lung cancer cell line with various concentrations, and then the change in cell viability for each cell line was measured. The results are presented in a graph (a few materials known as NamPT inhibitors were used as controls). A total of 9 cancer cells lines (three NAPRT negative cell lines: H322, H661, and H1155; and six NAPRT positive cell lines: H1993, H2122, H2030, H1975, H1299, and HBEC30) were used. 5% fetal bovine serum (Gibco, US) and 1% penicillin/streptomycin (Gibco) were added to a medium, and the cells were cultured in a 37° C. constant temperature incubator containing 5% CO2. For compound treatment, each type of cells were seeded at 3×10^3 cells/well in a 96-well plate (Corning) and then incubated in a 37° C. constant temperature incubator containing 5% CO2 for 18 hours. […] Afterwards, the cells were cultured in an incubator containing 5% CO2 at 37° C. for 72 hours. To confirm the effect of inhibiting the proliferation of cancer cells, a CellTiter-Glo Luminescent Cell Viability Assay (Promega) was used. After treating the cells with 10 μL of CellTiter-Glo luciferase reagent and leaving them for 15 minutes at room temperature, the luminescence of each well was measured using EnVision2105 (PerkinElmer). The change in cell viability by the compound diluted at the concentration of each step was converted into a relative % value for the amount of luminescence shown by DMSO treatment. EC50 is expressed as the concentration of each compound that induces 50% of the maximum luminescence level.
(§2) The results of measuring the proliferation inhibition ability of the compound of each Example on nine types of lung cancer cell lines, obtained through the above experiment, are shown in Table 2 in the unit of EC50 (μM). The resulting values are expressed as follows.
(In general: Cellular ATP, detected with luciferase, serves as a proxy for viable cell number.)

The subject of experiment [2] is NAPRT positive cell lines (H1993, H2122, H2030, H1975, H1299, HBEC30). The experiment in a line: Proliferation inhibition on NAPRT positive lung cancer cell lines (CellTiter-Glo). It is filed as cell-based. As to conditions: 72 hours. Here is the method: as §1, §2
The target of a further experiment is NamPT (Homo sapiens (Human), UniProt P43490). Kind of experiment: Measurement of NamPT inhibitory ability IC50 (NamPT colorimetric assay kit, Abcam ab221819). It is filed as biochemical. As to conditions: NamPT recombinant protein, WST-1 absorbance at 450 nm; class key in μM. Here is the method:
To test the effect of the compound prepared in each Example on the substrate decomposition rate (Vmax/min) mediated by NamPT enzyme, IC50 was calculated. In this experiment, the NamPT colorimetric assay kit (ab221819) produced by Abcam was used, and Graph prism software was used for IC50 calculation. PRPP, ATP, NMNAT1, NamPT recombinant proteins, and various concentrations of the compound of each Example (half-log step dilution from 100 μM) were added to nicotinamide to synthesize nicotinamide adenine dinucleotide (NAD) from the nicotinamide, and a total of 60 μL of the reaction solution was reacted at room temperature for 1 hour. WST-1 formazan converted by NAD generated by adding WST-1 was measured. The result of the reaction was obtained by the following formula by measuring absorbance using EnVision2105 (PerkinElmer) at 450 nm for 60 minutes at 2-minute intervals.
In Mathematical Formula 1, T1 and T2 are arbitrary times, and A1 and A2 represent the absorbance measured at T1 and T2 at 450 nm, respectively.
The results of measuring the NamPT inhibition activity of the compound of each Example obtained through the above experiment are shown in Table 1 in the unit of IC50 (nM), and the result values are expressed as follows.
Background: Tetrazolium dyes change colour on reduction, which living cells bring about.

In general, EC50 refers to the midpoint of the concentration-response curve. By IC50 is commonly meant the midpoint of a concentration-inhibition curve.

Bounds are passed on as bounds.

Sequence of NamPT (P43490 whole entry): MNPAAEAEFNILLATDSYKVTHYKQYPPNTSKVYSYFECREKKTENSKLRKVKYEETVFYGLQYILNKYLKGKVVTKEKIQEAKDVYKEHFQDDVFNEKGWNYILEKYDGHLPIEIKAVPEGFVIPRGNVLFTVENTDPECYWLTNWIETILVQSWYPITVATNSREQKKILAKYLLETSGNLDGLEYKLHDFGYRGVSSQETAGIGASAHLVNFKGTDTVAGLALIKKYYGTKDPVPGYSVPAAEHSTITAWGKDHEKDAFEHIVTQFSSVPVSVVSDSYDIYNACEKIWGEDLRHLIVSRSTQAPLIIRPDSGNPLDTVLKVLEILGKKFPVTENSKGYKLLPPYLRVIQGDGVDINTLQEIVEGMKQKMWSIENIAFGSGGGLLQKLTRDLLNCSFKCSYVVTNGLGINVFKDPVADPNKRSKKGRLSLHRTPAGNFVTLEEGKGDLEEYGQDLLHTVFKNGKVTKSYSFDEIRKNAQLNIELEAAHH

Take `O=C(NCc1ccc(-c2nc3ccc(C(F)(F)F)cc3o2)cc1)c1cnc2nccn2c1` [Example 19, N-[[4-[6-(trifluoromethyl)-1,3-benzoxazol-2-yl]phenyl]methyl]imidazo[1,2-a]pyrimidin-6-carboxamide]: the EC50 was 0.051 to 0.1 µM in experiment [1] and over 101 µM in experiment [2]. In addition, on NamPT, the IC50 is under 0.05 µM.
As to `O=C(NCc1ccc(-c2nc3cc(S(=O)(=O)c4ccccc4)ccc3o2)cc1)c1cnc2nccn2c1` [Example 38, N-[[4-[5-(benzenesulfonyl)-1,3-benzoxazol-2-yl]phenyl]methy]imidazo[1,2-a]pyrimidin-6-carboxamide], the EC50 in experiment [1] was 0.051 to 0.1 µM; in experiment [2], over 101 µM. On NamPT, the IC50 is under 0.05 µM.
For `CN(C)C(=O)c1ccc2oc(-c3ccc(CNC(=O)c4cnc5nccn5c4)cc3)nc2c1` [Example 32, 2-[4-[(imidazo[1,2-a]pyrimidin-6-carbonylamino)methyl]phenyl]-N,N-dimethyl-1,3-benzoxazol-5-carboxamide], the EC50 in experiment [1] is under 0.05 µM; in experiment [2] it was 10 to 100 µM. Besides, at NamPT, the IC50 was under 0.05 µM.
As to `O=C(NCc1ccc(-c2nc3ccccc3o2)cc1)c1cnc2nccn2c1` [Example 2, N-[[4-(1,3-benzoxazol-2-yl)phenyl]methyl]imidazo[1,2-a]pyrimidin-6-carboxamide], the EC50 was under 0.05 µM in experiment [1] and over 101 µM in experiment [2]. In addition, the concentration for half-maximal inhibition (IC50) on NamPT lay within 0.051 to 0.1 µM.
In the case of `O=C(NCc1ccc(-c2nc3cc(C(=O)N4CCC4)ccc3o2)cc1)c1cnc2nccn2c1` [Example 33, N-[[4-[5-(azetidin-1-carbonyl)-1,3-benzoxazol-2-yl]phenyl]methyl]imidazo[1,2-a]pyrimidin-6-carboxamide], the figures for the EC50 in experiment [1] and in experiment [2] were under 0.05 µM and over 101 µM, respectively. For the same molecule, the IC50 at NamPT was under 0.05 µM.
Take `Cc1ccc2oc(-c3ccc(CNC(=O)c4cnc5nccn5c4)cc3)nc2c1` [Example 6, N-[[4-(5-methyl-1,3-benzoxazol-2-yl)phenyl]methyl]imidazo[1,2-a]pyrimidin-6-carboxamide]: the EC50 in experiment [1] is under 0.05 µM; in experiment [2] it was over 101 µM. Also, at NamPT, the IC50 is under 0.05 µM.
Consider `CC(C)c1ccc2nc(-c3ccc(CNC(=O)c4cnc5nccn5c4)cc3)oc2c1` [Example 3], for which the EC50 in experiment [1] was under 0.05 µM; in experiment [2], over 101 µM.
Consider `O=C(NCc1ccc(-c2nc3cc(C(=O)N4CCCC4)ccc3o2)cc1)c1cnc2nccn2c1` [Example 34, N-[[4-[5-(pyrrolidine-1-carbonyl)-1,3-benzoxazol-2-yl]phenyl]methyl]imidazo[1,2-a]pyrimidin-6-carboxamide], for which the values for the EC50 in experiment [1] and in experiment [2] were under 0.05 µM and 10 to 100 µM, respectively. At NamPT, the IC50 is under 0.05 µM.
As for `Nc1ccc2oc(-c3ccc(CNC(=O)c4cnc5nccn5c4)cc3)nc2c1` [Example 46, N-[[4-(5-amino-1,3-benzoxazol-2-yl)phenyl]methyl]imidazo[1,2-a]pyrimidin-6-carboxamide], the concentration for half-maximal inhibition (IC50) on NamPT was in the range of 0.051 to 0.1 µM.
Consider `O=C(NCc1ccc(-c2nc3cc(-c4cccnc4)ccc3o2)cc1)c1cnc2nccn2c1` [Example 27, N-[[4-[5-(3-pyridyl)-1,3-benzoxazol-2-yl]phenyl]methyl]imidazo[1,2-a]pyrimidin-6-carboxamide], for which, at NamPT, the IC50 fell in the range of 0.051 to 0.1 µM.
`CCNC(=O)c1ccc2oc(-c3ccc(CNC(=O)c4cnc5nccn5c4)cc3)nc2c1` [Example 31, N-ethyl-2-[4-[(imidazo[1,2-a]pyrimidin-6-carbonxylamino)methyl]phenyl]-1,3-benzoxazol-5-carboxamide]: the figures for the EC50 in experiment [1] and in experiment [2] were under 0.05 µM and over 101 µM, respectively. In addition, the IC50 at NamPT was under 0.05 µM.
Turning to `COc1ccc2oc(-c3ccc(CNC(=O)c4cnc5nccn5c4)cc3)nc2c1` [Example 7, N-[[4-(5-methoxy-1,3-benzoxazol-2-yl)phenyl]methyl]imidazo[1,2-a]pyrimidin-6-carboxamide], at NamPT, the IC50 was under 0.05 µM.
Same read-out and setting: then `O=C(NCc1ccc(-c2nc3cc(Oc4ccccn4)ccc3o2)cc1)c1cnc2nccn2c1` [Example 25, N-[[4-[5-(2-pyridyloxy)-1,3-benzoxazol-2-yl]phenyl]methyl]imidazo[1,2-a]pyrimidin-6-carboxamide], with under 0.05 µM; and `O=C(NCc1ccc(-c2nc3cc(Oc4ccccc4)ccc3o2)cc1)c1cnc2nccn2c1` [Example 53, N-[[4-(5-phenoxy-1,3-benzoxazol-2-yl)phenyl]methyl]imidazo[1,2-a]pyrimidin-6-carboxamide], with under 0.05 µM; and `COc1cc2nc(-c3ccc(CNC(=O)c4cnc5nccn5c4)cc3)oc2cc1C` [Example 43, N-[[4-(5-methoxy-6-methyl-1,3-benzoxazol-2-yl)phenyl]methyl]imidazo[1,2-a]pyrimidin-6-carboxamide], with under 0.05 µM.
Consider `O=C(NCc1ccc(-c2nc3cnc(Cl)cc3o2)cc1)c1cnc2nccn2c1` [Example 62], for which the IC50 on NamPT was in the range of 0.051 to 0.1 µM.
On to `CS(=O)(=O)c1ccc2oc(-c3ccc(CNC(=O)c4cnc5nccn5c4)cc3)nc2c1` [Example 9, N-[[4-(5-methylsulfonyl-1,3-benzoxazol-2-yl)phenyl]methyl]imidazo[1,2-a]pyrimidin-6-carboxamide], for which the EC50 in experiment [1] was under 0.05 µM; in experiment [2] it was over 101 µM. In addition, on NamPT, the half-maximal inhibitory concentration (IC50) was under 0.05 µM.
Consider `O=C(NCc1ccc(-c2nc3cc(OCc4ccccc4)ccc3o2)cc1)c1cnc2nccn2c1` [Example 55, N-[[4-(5-benzyloxy-1,3-benzoxazol-2-yl)phenyl]methyl]imidazo[1,2-a]pyrimidin-6-carboxamide], for which the IC50 at NamPT is over 1 µM.
`O=C(NCc1ccc(-c2nc3ccc(F)cc3o2)cc1)c1cnc2nccn2c1` [Example 17, N-[[4-(6-fluoro-1,3-benzoxazol-2-yl)phenyl]methyl]imidazo[1,2-a]pyrimidin-6-carboxamide]: the EC50 in experiment [1] is 0.051 to 0.1 µM; in experiment [2] it was over 101 µM. The IC50 at NamPT was in the range of 0.051 to 0.1 µM.
In the case of `COc1ccc2nc(-c3ccc(CNC(=O)c4cnc5nccn5c4)cc3)oc2c1` [Example 22, N-[[4-(6-methoxy-1,3-benzoxazol-2-yl)phenyl]methyl]imidazo[1,2-a]pyrimidin-6-carboxamide], the EC50 in experiment [1] is 0.051 to 0.1 µM; in experiment [2], over 101 µM. Further, the IC50 on NamPT was under 0.05 µM.
Turning to `CCC(=O)Nc1ccc2oc(-c3ccc(CNC(=O)c4cnc5nccn5c4)cc3)nc2c1` [Example 15, N-[[4-[5-(propanoylamino)-1,3-benzoxazol-2-yl]phenyl]methyl]imidazo[1,2-a]pyrimidin-6-carboxamide], the IC50 on NamPT is 0.11 to 1 µM.
The same measure, in the same setting: then `Cc1ccc2nc(-c3ccc(CNC(=O)c4cnc5nccn5c4)cc3)oc2c1` [Example 1, N-[[4-(6-methyl-1,3-benzoxazol-2-yl)phenyl]methyl]imidazo[1,2-a]pyrimidin-6-carboxamide], with 0.051 to 0.1 µM; and `O=C(NCc1ccc(-c2nc3ccc(Oc4ccccc4)cc3o2)cc1)c1cnc2nccn2c1` [Example 57, N-[[4-(6-phenoxy-1,3-benzoxazol-2-yl)phenyl]methyl]imidazo[1,2-a]pyrimidin-6-carboxamide], with over 1 µM.
